Experimental findings from patent publication US20250296938A1, “Compounds that Interact with the Ras Superfamily for the Treatment of Cancers, Inflammatory Diseases, Rasopathies, and Fibrotic Disease” (SHY Therapeutics, LLC, priority 2018, published 2025) are described below.

Test in all cases: Ras GTP binding domain inhibition assay (Cy3-GTP/Cy5-GTP competition)
The test system of one assay is KRas G12C mutant. Details: species or system human. The settings on record: 20 μM; for KRas G12C mutant + SOS: % inh.: with SOS; for KRas G12C mutant: % inh.: without SOS. The protocol: (§1) The following method was developed as specific assay for the following proteins: KRas wild type, KRas Q61H mutant, KRas G12C mutant, KRas G12D mutant, HRas wild type, Rac-1, and Rho-A.
(§2) • 25 mM Tris-HCl, pH 7.4 • 27 mM KCl • 137 mM NaCl • 1 mM MgCl2 • 1 mM DTT
(§3) • 50 mM Tris-HCl, pH 7.0 • 1 mM MgCl2 • 1 mM DTT
(§4) The small GTPases proteins: KRas wild type. KRas Q61H mutant, KRas G12C mutant, KRas G12D mutants, HRas wild type, Rac-1, and Rho-A were expressed as His-tagged proteins. In addition, the Guanosine nucleotide Exchange Factor (GEF) Sos protein (residues 556-1049) was expressed as a His-tagged protein. In cells, the guanine nucleotide exchange factor Sos protein promotes activation of Ras proteins by stimulating an exchange of GDP for GTP. The inclusion of Sos to the Ras GTP binding domain inhibition assay may be considered as an alternative representation of physiological cellular conditions for evaluating the inhibitory activity of some of the tested small molecules.
(§5) For the assay, all purified small GTPases proteins were diluted in Buffer-I or Buffer-II to a final concentration of 10-30 μg/mL. 200 μL of each diluted protein was added to a nickel-coated 96-well plate and incubated overnight at 4° C. Then the protein solution was discarded and 200 μL of Buffer-I or Buffer-II was added to each well in the presence of 1% DMSO. Compounds to be tested were added to the protein-coated wells at final concentration of 20 μM, and incubated for 3 hours at room temperature with and without […] of Sos added to the final hour of the incubation. When performing IC50 measurements a serial dilution of all tested concentrations was added. Then Cy3-GTP or Cy5-GTP was added to each well to a final concentration of 100 nM. The labeled GTP was incubated for 45 minutes at room temperature. Following GTP incubation, wells were washed 3× in Buffer-I or Buffer-II and 200 μL of Buffer-I or Buffer-II was added to each well. Following washes, the amount of bound labeled-GTP was measured using a SpectraMax M3 (Molecular Devices).

The next assay has as its system KRas Q61H mutant. Also on record: species or system human. The conditions noted are these: 20 μM; for KRas Q61H mutant + SOS: % inh.: with SOS; for KRas Q61H mutant: % inh.: without SOS. The protocol: as §1, §2, §3, §4, §5
In another assay the test system is KRas wild type. Details: species or system human. The conditions noted are these: 20 μM; for KRas wild type + SOS: % inh.: with SOS; for KRas wild type: % inh.: without SOS. How it is done: as §1, §2, §3, §4, §5
The next assay deals with T1, KRas G12D mutant (Homo sapiens, UniProt P01116, G12D).
T1 construct: fused on or other part: His tag, used for capture on nickel-coated plates
The settings on record: 20 μM. The protocol: as §1, §2, §3, §4, §5

Setting [1] is: with SOS, read-out: KRas G-12D mutant + SOS: % inh.
The mark [2] stands for this setting: without SOS, read-out: KRas G12D mutant: % inh.

Read-outs that look alike come from different tables or passages of the source.

For the compound `COC1CCN(c2nc(-c3nccn3C)nc3sc(-c4ccn(C)n4)c(-c4ccccc4)c23)CC1` [drawing 856], in the assay on KRas G12C mutant, the “KRas G12C mutant + SOS: % inh.” value was “C (51-75% inhibition)” and the “KRas G12C mutant: % inh.” value was “B (26-50% inhibition)”. Further, in the assay with KRas Q61H mutant, the “KRas Q61H mutant + SOS: % inh.” value is on record as “C (51-75% inhibition)” and the “KRas Q61H mutant: % inh.” value is listed as “B (26-50% inhibition)”. In the assay with KRas wild type, the “KRas wild type + SOS: % inh.” value is on record as “B (26-50% inhibition)” and the “KRas wild type: % inh.” value is recorded as 0 (0% inhibition). For the same compound, the inhibition at 20 µM at KRas G12D mutant (setting [1]) was 26 to 50%. For the same compound, the inhibition at 20 µM on KRas G12D mutant (setting [2]) was in the range of 26 to 50%.
Take `Cc1cn(C)c(-c2nc(O)c3scc(-c4ccccn4)c3n2)n1` [drawing 807]: in the assay on KRas G12C mutant, the “KRas G12C mutant + SOS: % inh.” value is listed as “C (51-75% inhibition)” and the “KRas G12C mutant: % inh.” value is reported as “C (51-75% inhibition)”. In addition, in the assay on KRas Q61H mutant, the “KRas Q61H mutant + SOS: % inh.” value was “C (51-75% inhibition)” and the “KRas Q61H mutant: % inh.” value is given as “A (1-25% inhibition)”. In the assay with KRas wild type, the “KRas wild type + SOS: % inh.” value is on record as “B (26-50% inhibition)” and the “KRas wild type: % inh.” value was “D (76-100% inhibition)”. The inhibition at 20 µM on KRas G12D mutant (setting [1]) fell in the range of 26 to 50%. In addition, at KRas G12D mutant (setting [2]), the inhibition at 20 µM fell in the range of 76 to 100%.
For `COc1cccc(Cn2ccnc2-c2nc(O)c3scc(-c4ccccn4)c3n2)c1` [drawing 850], in the assay on KRas G12C mutant, the “KRas G12C mutant + SOS: % inh.” value is given as “D (76-100% inhibition)” and the “KRas G12C mutant: % inh.” value was “C (51-75% inhibition)”. In addition, in the assay on KRas Q61H mutant, the “KRas Q61H mutant + SOS: % inh.” value is on record as “D (76-100% inhibition)” and the “KRas Q61H mutant: % inh.” value was “C (51-75% inhibition)”. Moreover, in the assay on KRas wild type, the “KRas wild type + SOS: % inh.” value was “C (51-75% inhibition)” and the “KRas wild type: % inh.” value was “C (51-75% inhibition)”. Moreover, the inhibition at 20 µM at KRas G12D mutant (setting [1]) was 51 to 75%. Further, the inhibition at 20 µM at KRas G12D mutant (setting [2]) is 76 to 100%.
With `CC(C)NC(=O)c1nc(-c2nccn2C)nc(O)c1O` [drawing 830], in the assay on KRas G12C mutant, the “KRas G12C mutant + SOS: % inh.” value is given as “B (26-50% inhibition)” and the “KRas G12C mutant: % inh.” value is listed as “C (51-75% inhibition)”. In the assay with KRas Q61H mutant, the “KRas Q61H mutant + SOS: % inh.” value is recorded as “C (51-75% inhibition)” and the “KRas Q61H mutant: % inh.” value was “C (51-75% inhibition)”. Moreover, in the assay with KRas wild type, the “KRas wild type + SOS: % inh.” value was “B (26-50% inhibition)” and the “KRas wild type: % inh.” value was “C (51-75% inhibition)”. Further, the inhibition at 20 µM at KRas G12D mutant (setting [1]) lay within 26 to 50%. Also, the inhibition at 20 µM at KRas G12D mutant (setting [2]) is 51 to 75%.
In the case of `COC1CCN(c2nc(-c3nccn3C)nc3sc(-c4ccn(C)n4)c(-c4ccccc4)c23)C1` (centres unmarked) [drawing 863], in the assay with KRas G12C mutant, the “KRas G12C mutant + SOS: % inh.” value was “B (26-50% inhibition)” and the “KRas G12C mutant: % inh.” value was “A (1-25% inhibition)”. In the assay on KRas Q61H mutant, the “KRas Q61H mutant + SOS: % inh.” value is on record as “C (51-75% inhibition)” and the “KRas Q61H mutant: % inh.” value is listed as “B (26-50% inhibition)”. Also, in the assay with KRas wild type, the “KRas wild type + SOS: % inh.” value is “B (26-50% inhibition)” and the “KRas wild type: % inh.” value is “A (1-25% inhibition)”. For the same compound, on KRas G12D mutant (setting [1]), the inhibition at 20 µM fell in the range of 1 to 25%. Also, the inhibition at 20 µM at KRas G12D mutant (setting [2]) lay in the range of 1 to 25%.
Take `COCCN(C)C(=O)c1nc(-c2ccccn2)nc(O)c1O` [drawing 810]: in the assay on KRas G12C mutant, the “KRas G12C mutant + SOS: % inh.” value is “A (1-25% inhibition)” and the “KRas G12C mutant: % inh.” value is “C (51-75% inhibition)”. In the assay on KRas Q61H mutant, the “KRas Q61H mutant + SOS: % inh.” value was “A (1-25% inhibition)” and the “KRas Q61H mutant: % inh.” value is on record as “A (1-25% inhibition)”. Moreover, in the assay on KRas wild type, the “KRas wild type + SOS: % inh.” value is “A (1-25% inhibition)” and the “KRas wild type: % inh.” value is “B (26-50% inhibition)”. Further, the inhibition at 20 µM on KRas G12D mutant (setting [1]) was 1 to 25%. In addition, the inhibition at 20 µM at KRas G12D mutant (setting [2]) was 1 to 25%.
As to `COc1cccc(Oc2nc(-c3ccccn3)nc(O)c2OC)c1` [drawing 801], in the assay with KRas G12C mutant, the “KRas G12C mutant + SOS: % inh.” value is listed as “C (51-75% inhibition)” and the “KRas G12C mutant: % inh.” value is reported as “C (51-75% inhibition)”. For the same compound, in the assay on KRas Q61H mutant, the “KRas Q61H mutant + SOS: % inh.” value is recorded as “C (51-75% inhibition)” and the “KRas Q61H mutant: % inh.” value is reported as “D (76-100% inhibition)”. Moreover, in the assay with KRas wild type, the “KRas wild type + SOS: % inh.” value is “C (51-75% inhibition)” and the “KRas wild type: % inh.” value is given as “D (76-100% inhibition)”. The inhibition at 20 µM on KRas G12D mutant (setting [1]) was in the range of 51 to 75%. Besides, at KRas G12D mutant (setting [2]), the inhibition at 20 µM lay within 76 to 100%.
